Measurements published in patent US11236081B2, “Crystalline salts of corydalmine” (priority 2018, dated 2022).
Where “and” joins values, the source holds several entries; their conditions need not be identical. Identical values can stand only once.

Assay: Pharmacokinetic study: plasma concentration and plasma PK parameters after IV/PO dosing (LC-MS/MS, WinNonlin)
Format: in vivo, Male SD Rat
Details: male SD rat
Outline: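 Plasma levels after IV and oral dosing were measured by LC-MS/MS. Non-compartmental parameters came from concentration–time data: T1/2, C0, AUC, MRT, Cl and Vss for IV; T1/2, Cmax, Tmax, AUC, MRT and F% for PO. Values are given as mean and standard deviation.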

[1] = IV 3 mg/kg, plasma, individual rats, listed as TLZ-16 freebase, 3 mg/kg
[2] = PO 10 mg/kg (equal to freebase), plasma, individual rats, vehicle 20% HP-β-CD in water (POA, freebase) or water (salts), listed as TLZ-16 freebase, 10 mg/kg
[3] = PO 10 mg/kg (equal to freebase), plasma, mean n=3, vehicle 20% HP-β-CD in water (POA, freebase) or water (salts)

COc1cc2c(cc1OC)[C@@H]1Cc3ccc(O)c(OC)c3CN1CC2 [Compound (1), l-corydalmine]
concentration in plasma (IV 3 mg/kg, 0 h, individual rats): BLOQ (BLOQ = below limit of quantitation (0.2 ng/mL))
concentration in plasma (IV 3 mg/kg, 0.083 h, individual rats, listed as TLZ-16 freebase, 3 mg/kg): 1410 ng/mL and 1610 ng/mL
concentration in plasma (IV 3 mg/kg, 0.25 h, individual rats, listed as TLZ-16 freebase, 3 mg/kg): 960 ng/mL and 995 ng/mL
concentration in plasma (IV 3 mg/kg, 0.5 h, individual rats, listed as TLZ-16 freebase, 3 mg/kg): 496 ng/mL and 536 ng/mL
concentration in plasma (IV 3 mg/kg, 1 h, individual rats, listed as TLZ-16 freebase, 3 mg/kg): 174 ng/mL and 206 ng/mL
concentration in plasma (IV 3 mg/kg, 2 h, individual rats, listed as TLZ-16 freebase, 3 mg/kg): 81.2 ng/mL and 60.6 ng/mL
concentration in plasma (IV 3 mg/kg, 4 h, individual rats, listed as TLZ-16 freebase, 3 mg/kg): 28.6 ng/mL and 43.0 ng/mL and 20.2 ng/mL
concentration in plasma (IV 3 mg/kg, 8 h, individual rats, listed as TLZ-16 freebase, 3 mg/kg): 5.24 ng/mL and 11.7 ng/mL and 2.20 ng/mL
concentration in plasma (IV 3 mg/kg, 24 h, individual rats, listed as TLZ-16 freebase, 3 mg/kg): BLOQ (BLOQ = below limit of quantitation (0.2 ng/mL))
AUCInf [1]: 1074 ng·h/mL and 1030 ng·h/mL
AUClast [1]: 1038 ng·h/mL and 1027 ng·h/mL
AUClast/D [1]: 312 kg·ng·h/mL/mg and 346 kg·ng·h/mL/mg and 342 kg·ng·h/mL/mg
AUC—% Extrap_obs [1]: 1.32% and 3.37% and 0.306%
C0 [1]: 1707 ng/mL and 2045 ng/mL
Cl_obs [1]: 52.6 mL/min/kg and 46.5 mL/min/kg and 48.6 mL/min/kg
MRTInf_obs [1]: 1.52 h and 1.08 h
T1/2 [1]: 1.66 h and 2.14 h and 4.37 h
Vss_obs [1]: 3.43 L/kg and 4.26 L/kg and 3.16 L/kg
AUClast/D, Mean (IV 3 mg/kg, plasma, mean n=3): 334 kg·ng·h/mL/mg
AUC—% Extrap_obs, Mean (IV 3 mg/kg, plasma, mean n=3): 1.67%
C0, Mean (IV 3 mg/kg, plasma, mean n=3): 1822 ng/mL
Cl_obs, Mean (IV 3 mg/kg, plasma, mean n=3): 49.2 mL/min/kg
Vss_obs, Mean (IV 3 mg/kg, plasma, mean n=3): 3.61 L/kg
F (PO 10 mg/kg (equal to freebase) vs IV 3 mg/kg freebase, individual rats, vehicle 20% HP-β-CD in water (POA, freebase) or water (salts), listed as TLZ-16 freebase): 18.4% and 27.3% and 24.4%
F, Mean (PO 10 mg/kg (equal to freebase) vs IV 3 mg/kg freebase, mean n=3, vehicle 20% HP-β-CD in water (POA, freebase) or water (salts)): 23.4%
concentration in plasma (PO 10 mg/kg (equal to freebase), 0 h, individual rats, vehicle 20% HP-β-CD in water (POA, freebase) or water (salts)): BLOQ (BLOQ = below limit of quantitation (0.2 ng/mL))
concentration in plasma (PO 10 mg/kg (equal to freebase), 0.25 h, individual rats, vehicle 20% HP-β-CD in water (POA, freebase) or water (salts), listed as TLZ-16 freebase, 10 mg/kg): 127 ng/mL and 358 ng/mL and 86.7 ng/mL
concentration in plasma (PO 10 mg/kg (equal to freebase), 0.5 h, individual rats, vehicle 20% HP-β-CD in water (POA, freebase) or water (salts), listed as TLZ-16 freebase, 10 mg/kg): 139 ng/mL and 344 ng/mL and 109 ng/mL
concentration in plasma (PO 10 mg/kg (equal to freebase), 1 h, individual rats, vehicle 20% HP-β-CD in water (POA, freebase) or water (salts), listed as TLZ-16 freebase, 10 mg/kg): 167 ng/mL and 98.9 ng/mL
concentration in plasma (PO 10 mg/kg (equal to freebase), 2 h, individual rats, vehicle 20% HP-β-CD in water (POA, freebase) or water (salts), listed as TLZ-16 freebase, 10 mg/kg): 53.1 ng/mL and 71.9 ng/mL
concentration in plasma (PO 10 mg/kg (equal to freebase), 4 h, individual rats, vehicle 20% HP-β-CD in water (POA, freebase) or water (salts), listed as TLZ-16 freebase, 10 mg/kg): 47.1 ng/mL and 40.1 ng/mL
concentration in plasma (PO 10 mg/kg (equal to freebase), 8 h, individual rats, vehicle 20% HP-β-CD in water (POA, freebase) or water (salts), listed as TLZ-16 freebase, 10 mg/kg): 35.7 ng/mL and 45.3 ng/mL
concentration in plasma (PO 10 mg/kg (equal to freebase), 24 h, individual rats, vehicle 20% HP-β-CD in water (POA, freebase) or water (salts), listed as TLZ-16 freebase, 10 mg/kg): BLOQ (BLOQ = below limit of quantitation (0.2 ng/mL)) and 0.278 ng/mL and 0.869 ng/mL
AUCInf [2]: 925 ng·h/mL and 829 ng·h/mL
AUClast [2]: 924 ng·h/mL and 825 ng·h/mL
AUClast/D [2]: 61.5 kg·ng·h/mL/mg and 92.4 kg·ng·h/mL/mg and 82.5 kg·ng·h/mL/mg
AUC—% Extrap_obs [2]: 58.7% and 0.111% and 0.505%
Cmax [2]: 139 ng/mL and 358 ng/mL and 109 ng/mL
MRTInf_obs [2]: 13.6 h and 4.19 h and 5.68 h
T1/2 [2]: 8.80 h and 2.57 h and 3.34 h
Tmax [2]: 0.25 h
AUClast/D, Mean [3]: 78.8 kg·ng·h/mL/mg
AUC—% Extrap_obs, Mean [3]: 19.8%
